According to patent publication US11492379B2 (priority 2020, dated 2022):

System: icSARS-CoV-2-GFP
Format: cell-based, SARS-CoV-2

trypsin was tested, and the syncytium formation was “did not trigger syncytium formation” and the “virus titers relative to controls” value was “slightly lower virus titers than controls”.
